Reference: patent publication US8742156B2 (priority 2010, dated 2014)
Counter-ions that a name gives are not always drawn. Like-named read-outs stand apart in the source and are kept apart here.

Tests used:
[1] = test system: H1N1 virus (A/HK/54/98 (Tamiflu-sensitive strain)); test: Viral infection of MDCK cells, TCID50 viral titer, H1N1 (Tamiflu-sensitive); assay type: cell-based, Human influenza H1N1 virus; conditions: for TCID50/ml H1N1 virus: m.o.i of 2, supernatant 48-hour post-infection; for viral titers of Tamiflu-sensitive (Tami-S) H1N1 virus decreased (fold): FIG. 1, multiplicity of infection of 0.2, 48-hour post-infection
H9N2 (A/Quail/HK/G1/97) = assay type: cell-based, influenza H9N2 virus; conditions: for TCID50/ml H9N2 virus: m.o.i of 2, supernatant 48-hour post-infection
H3N2 (A/H3N2/1174/99) = test: Viral infection of MDCK cells, TCID50 viral titer, H3N2; assay type: cell-based, influenza H3N2 virus; conditions: for TCID50/ml H3N2 virus: m.o.i of 2, supernatant 48-hour post-infection
MDCK cells = test: Cell Viability Test (MTT); assay type: cell-based, canine; conditions: 50 uM, 72 hours
Experimental: This compound was obtained from the National Cancer Institute, USA. Cell Viability Test: MDCK cells were seeded at 2×10^6/ml in a 96-well plate for 16-24 hours. Compound 58 (50 uM) was added to the cells. DMSO was added to the cells as a control. Cells were incubated at 37° C. and 5% CO2 for 72 hours, and then Thiazolyl Blue Tetrazolium Bromide (MTT) was added to a final concentration of 0.1 mg/ml. After two hours, the culture supernatant was removed and each well was replenished with isopropanol. The MTT metabolic product, formazan, was dissolved in isopropanol for five minutes with shaking. The optical densities of formazan and background were measured at 560 nm and 670 nm, respectively.

| Structure (SMILES) | TCID50/ml H1N1 virus ([1]; 100 μM) | virus level suppressed (fold) ([1]; H1N1 tamiflu-sensitive, Table 1B (100 μM)) | TCID50/ml H1N1 virus ([1]; 50 μM) | viral titers of Tamiflu-sensitive (Tami-S) H1N1 virus decreased (fold) [1] | TCID50/ml H9N2 virus (H9N2 (A/Quail/HK/G1/97); 50 μM) | TCID50/ml H3N2 virus (H3N2 (A/H3N2/1174/99); 50 μM) | cytotoxicity in MDCK cells compared with DMSO (MDCK cells) | Cytotoxicity index (MDCK cells; MDCK cells, MTT, relative to DMSO (1.0)) | TCID50/ml H1N1 virus ([1]; 10 μM) | TCID50/ml H1N1 virus ([1]; 20 μM) | inhibitory effects against Tami-S H1N1 virus ([1]; FIG. 1, multiplicity of infection of 0.2) | inhibition of replication of H1N1 virus ([1]; TCID50 results, Table 1A) | TCID50/ml H9N2 virus (H9N2 (A/Quail/HK/G1/97); 10 μM) | TCID50/ml H9N2 virus (H9N2 (A/Quail/HK/G1/97); 20 μM) | inhibition of replication of H9N2 virus (H9N2 (A/Quail/HK/G1/97); TCID50 results, Table 1A) | TCID50/ml H3N2 virus (H3N2 (A/H3N2/1174/99); 10 μM) | TCID50/ml H3N2 virus (H3N2 (A/H3N2/1174/99); 20 μM) | inhibition of replication of H3N2 virus (H3N2 (A/H3N2/1174/99); TCID50 results, Table 1A) |
| --- | --- | --- | --- | --- | --- | --- | --- | --- | --- | --- | --- | --- | --- | --- | --- | --- | --- | --- |
| O=C(Nc1ccc(Nc2ccncc2)cc1)c1ccc(Nc2ccnc3ccccc23)cc1[N+](=O)[O-] [Compound 73, 2-nitro-N-[4-(pyridin-4-ylamino)phenyl]-4-(quinolin-4-ylamino)benzamide] | 2.28 × 10^3 TCID50/ml | around 10 fold |  |  |  |  |  |  |  |  |  |  |  |  |  |  |  |  |
| CCOC(=O)C1=C[C@@H](OC(CC)CC)[C@H](NC(C)=O)[C@@H](N)C1 [Tamiflu, oseltamivir, reference compound] | 1.52 × 10^3 TCID50/ml |  | 1.45 × 10^4 TCID50/ml | 8 fold | 9.00 × 10^1 TCID50/ml | 7.24 × 10^3 TCID50/ml |  |  |  |  |  |  |  |  |  |  |  |  |
| N=C(Nc1ccccc1)SCCCSC(=N)Nc1ccccc1 [Compound 58, Carbamimidothioic acid, phenyl-, 1,3-propanediyl ester, dihydrobromide] |  |  | 4.53 × 10^2 TCID50/ml | 5 fold | 1.90 × 10^2 TCID50/ml | 7.24 × 10^3 TCID50/ml | does not display cytotoxicity | 0.916 | 2.90 × 10^4 TCID50/ml | 1.82 × 10^4 TCID50/ml | potent inhibitory effects | inhibits the replication | 1.14 × 10^3 TCID50/ml | 4.16 × 10^2 TCID50/ml | inhibits the replication | 4.61 × 10^4 TCID50/ml | 1.72 × 10^4 TCID50/ml | inhibits the replication |
